pIC50: −log10 of the molar value.
These molecules were tested against Acrosin (Homo sapiens, UniProt P10323) (assay: Inhibition of acrosin in human spermatozoa assessed as effect on amidase activity after 3 hrs incubation by spectrophotometry).
Sequence of Acrosin (P10323 20-42 limits assumed): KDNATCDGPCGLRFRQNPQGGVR
Sequence of Acrosin (P10323 43-343 limits assumed): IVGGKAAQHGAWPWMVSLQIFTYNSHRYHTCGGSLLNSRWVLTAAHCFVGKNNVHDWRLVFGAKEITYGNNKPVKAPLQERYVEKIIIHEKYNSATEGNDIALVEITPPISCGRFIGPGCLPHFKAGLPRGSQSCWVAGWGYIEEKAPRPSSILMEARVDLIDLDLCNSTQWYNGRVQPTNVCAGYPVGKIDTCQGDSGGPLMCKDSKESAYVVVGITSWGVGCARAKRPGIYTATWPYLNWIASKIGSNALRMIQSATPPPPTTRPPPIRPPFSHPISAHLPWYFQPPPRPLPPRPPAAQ

SMILES | pIC50
COC(=O)Nc1nc2ccc(S(=O)(=O)Nc3cc(C)ccc3C)cc2[nH]1 | 2.05
COC(=O)Nc1nc2ccc(S(=O)(=O)NCc3ccccc3F)cc2[nH]1 | 3.51
COC(=O)Nc1nc2ccc(S(=O)(=O)NCc3ccc(F)cc3)cc2[nH]1 | 2.62
COC(=O)Nc1nc2ccc(S(=O)(=O)NCc3ccc(Br)cc3)cc2[nH]1 | 2.79
COC(=O)Nc1nc2ccc(S(=O)(=O)NCc3ccccc3Cl)cc2[nH]1 | 2.24
COC(=O)Nc1nc2ccc(S(=O)(=O)NCc3ccc(Cl)cc3)cc2[nH]1 | 2.12
COC(=O)Nc1nc2ccc(S(=O)(=O)NCc3ccc(Cl)cc3Cl)cc2[nH]1 | 2.90
COC(=O)Nc1nc2ccc(S(=O)(=O)NCc3ccc(Cl)c(Cl)c3)cc2[nH]1 | 2.40
COC(=O)Nc1nc2ccc(S(=O)(=O)NCc3ccc(OC)cc3)cc2[nH]1 | 2.48
COC(=O)Nc1nc2ccc(S(=O)(=O)NCc3cccc(C)c3)cc2[nH]1 | 2.30
COC(=O)Nc1nc2ccc(S(=O)(=O)NCc3ccc(C)cc3)cc2[nH]1 | 2.50
COC(=O)Nc1nc2ccc(S(=O)(=O)NCc3ccccc3)cc2[nH]1 | 2.99
COC(=O)Nc1nc2ccc(S(=O)(=O)NCc3ccc(C(F)(F)F)cc3)cc2[nH]1 | 1.97
COC(=O)Nc1nc2ccc(S(=O)(=O)NCc3ccc(F)cc3F)cc2[nH]1 | 2.81
COC(=O)Nc1nc2ccc(S(=O)(=O)NCc3ccc(F)c(F)c3)cc2[nH]1 | 2.80
COC(=O)Nc1nc2ccc(S(=O)(=O)NCc3cccc(F)c3)cc2[nH]1 | 2.74
COC(=O)Nc1nc2ccc(S(=O)(=O)NCc3ccccc3OC)cc2[nH]1 | 2.07
COC(=O)Nc1nc2ccc(S(=O)(=O)NCc3cccc(OC)c3)cc2[nH]1 | 2.12
COC(=O)Nc1nc2ccc(S(=O)(=O)NCc3ccc(OC)c(OC)c3)cc2[nH]1 | 1.94
COC(=O)Nc1nc2ccc(S(=O)(=O)NC(C)C)cc2[nH]1 | 3.33
CCCCNS(=O)(=O)c1ccc2nc(NC(=O)OC)[nH]c2c1 | 2.75
CCCCCCNS(=O)(=O)c1ccc2nc(NC(=O)OC)[nH]c2c1 | 2.74
COC(=O)Nc1nc2ccc(S(=O)(=O)N(CCC(C)C)CCC(C)C)cc2[nH]1 | 4.20
COC(=O)Nc1nc2ccc(S(=O)(=O)N(C)Cc3ccccc3)cc2[nH]1 | 2.90
O=Cc1cc(-c2ccc(Cl)cc2Cl)on1 | 2.77

From ChEMBL document CHEMBL2021816, “Synthesis and acrosin inhibitory activity of methyl 5-substituted-1H-benzo[d]imidazol-2-yl carbamate derivatives” (Bioorg Med Chem Lett, 2012)
